Measurements as given in article PMC6412891, “Synthesis and Biological Evaluation of Novel Thiazolyl-Coumarin Derivatives as Potent Histone Deacetylase Inhibitors with Antifibrotic Activity” (Molecules, 2019).

Legend:
[1] = test system: HDACs HeLa cells nuclear extract; assay: HDAC inhibitory activity, fluorometric kit, HeLa cell nuclear extract; assay type: biochemical, human; settings: HeLa cell nuclear extract as HDAC source
HDAC1 human recombinant = molecular target: T1, HDAC1 human recombinant (Homo sapiens, UniProt Q13547); assay: HDAC1 inhibitory activity, fluorometric kit; assay type: biochemical; settings: Class I
T1 construct: purchased Enzo Life Science BML-AK511

HDAC6 human recombinant = molecular target: T2, HDAC6 human recombinant (Homo sapiens, UniProt Q9UBN7); assay: HDAC6 inhibitory activity, fluorometric kit; assay type: biochemical; settings: Class II
T2 construct: purchased Enzo Life Science BML-AK516
T2 sequence (Q9UBN7 1-1215): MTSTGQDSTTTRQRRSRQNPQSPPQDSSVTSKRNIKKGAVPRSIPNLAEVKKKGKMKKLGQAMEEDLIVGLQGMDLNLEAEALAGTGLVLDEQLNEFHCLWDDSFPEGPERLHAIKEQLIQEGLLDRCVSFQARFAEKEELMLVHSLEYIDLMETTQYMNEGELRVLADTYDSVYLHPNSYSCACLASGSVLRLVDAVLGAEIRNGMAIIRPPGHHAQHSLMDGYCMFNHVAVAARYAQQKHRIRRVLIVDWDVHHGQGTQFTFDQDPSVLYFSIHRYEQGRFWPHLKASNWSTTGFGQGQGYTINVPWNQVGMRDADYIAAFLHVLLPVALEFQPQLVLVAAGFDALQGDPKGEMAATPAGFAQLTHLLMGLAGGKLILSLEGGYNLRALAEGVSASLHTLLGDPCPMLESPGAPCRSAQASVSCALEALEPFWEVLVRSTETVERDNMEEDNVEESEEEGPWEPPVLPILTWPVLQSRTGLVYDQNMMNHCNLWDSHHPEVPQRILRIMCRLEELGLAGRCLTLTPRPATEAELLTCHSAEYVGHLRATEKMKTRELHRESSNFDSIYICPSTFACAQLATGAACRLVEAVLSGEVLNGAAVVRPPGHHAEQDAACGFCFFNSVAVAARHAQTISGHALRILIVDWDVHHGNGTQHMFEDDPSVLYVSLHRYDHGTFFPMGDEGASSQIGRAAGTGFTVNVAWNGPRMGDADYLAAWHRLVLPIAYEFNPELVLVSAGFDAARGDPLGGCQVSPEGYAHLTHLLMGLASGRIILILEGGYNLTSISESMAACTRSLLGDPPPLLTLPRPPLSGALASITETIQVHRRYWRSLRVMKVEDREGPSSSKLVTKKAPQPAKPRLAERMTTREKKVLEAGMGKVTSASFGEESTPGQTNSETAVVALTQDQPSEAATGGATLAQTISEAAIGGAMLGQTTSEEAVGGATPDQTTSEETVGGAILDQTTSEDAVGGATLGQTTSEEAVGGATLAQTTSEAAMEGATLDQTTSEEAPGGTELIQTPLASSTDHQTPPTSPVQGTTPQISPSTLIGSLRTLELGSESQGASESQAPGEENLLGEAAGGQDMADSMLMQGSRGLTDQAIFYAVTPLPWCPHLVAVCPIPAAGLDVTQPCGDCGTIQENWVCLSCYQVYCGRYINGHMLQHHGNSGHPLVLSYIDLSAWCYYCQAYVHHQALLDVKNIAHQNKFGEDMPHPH

[2] = Cytotoxicity assay (Alamar Blue) in cardiac fibroblasts; assay type: cell-based, rat; settings: Sprague-Dawley, rat, primary neonatal rat cardiac fibroblasts (CFs), CFs treated for 48 h
Experimental: CFs were treated for 48 h with all the new CTz derivatives in a broad concentration range (100 μM^−1 mM), and their cytotoxicity was then evaluated. In Table 3 cytotoxic concentration 50 (CC50) values for each of the synthesized compounds are shown. […] When comparing the different ZBG the series 5 is the least cytotoxic for CFs, while series 8 was the most cytotoxic.
(§1) Sprague Dawley rats were obtained from the Animal Breeding Facility of the School of Chemical and Pharmaceutical Sciences at the University of Chile. All studies followed the Guide for the Care and Use of Laboratory Animals published by the US National Institutes of Health (NIH Publication 8th, 2011), and experimental protocols were approved by the University of Chile Institutional Ethics Review Committee. CF were isolated from of 2 or 3–day–old Sprague-Dawley rats and cultured as described previously. Briefly, the neonatal rats were decapitated and their hearts were extracted under aseptic environment. Atria were removed and ventricles were cut into small pieces (~1–2 mm) for posterior colagenase II digestion. The digestion yield was separated by 10 min centrifugation at 89×g. The pellet was resuspended in 10 mL of Dulbecco’s Modified Eagle’s Medium/Nutrient F-12 (DMEM-F12) supplemented with 10% FBS and antibiotics (100 μg/mL streptomycin and 100 units/mL penicillin) and cultured in a humid atmosphere of 5% CO2 and 95% O2 at 37°C until confluence (5 days). The purity of the CFs population was assessed through the expression of several markers. CFs had positive staining against vimentin (Santa Cruz Biotechnology), while being negative against sarcomeric actin and desmin (Sigma-Aldrich). Experiments were performed on cells at passage 1. Cells were cultured in 35-mm well plates and serum starved for 24 h prior to stimulation.
(§2) To evaluate cytotoxicity, CFs were seeded in 12 microwell plates at a ratio of 2 × 10^4 cell/cm^2, cultured in DMEM–F12 medium + 10% FBS, which was subsequently replaced by DMEM–F12. After 24 h of serum starvation derivatives were applied at proper times and concentrations in accordance to experimental procedures. Cell viability assays were carried out using Alamar Blue®, a nontoxic, cell permeable non fluorescent compound that is blue in color. Viable cells reduce resazurin to resorufin, which produces very bright red fluorescence which is used as a quantitative cell viability measure. 10 μL of 0.2 mg/mL Alamar Blue® was added into each well followed by incubation for 24 h. The fluorescence of Alamar Blue® was read using microplate reader at 570 excitation and emission to 595 nm. Cell survival was expressed as percentage over the untreated cells. To evaluate CFs proliferation assay, cells were seeded as mentioned before, and after serum starvation, they were stimulated by 10% fetal bovine serum (FBS), in presence/absence of CTz derivatives for 24 h, at concentrations according to experiment. Cell proliferation was quantified by Alamar Blue®, according to protocol mentioned before. Cell proliferation was expressed as percentage over the control FBS treated cells.

[3] = test system: neonatal rat cardiac fibroblasts (CFs); assay: FBS-induced cardiac fibroblast proliferation assay (Alamar Blue); assay type: cell-based; settings: 10% FBS-induced CF proliferation, 48 h, read-out: Inhibition percentage of cell proliferation
Experimental: CFs were treated for 48 h with 10% fetal bovine serum (FBS), to induce CFs proliferation in presence/absence of each new CTz derivatives in a concentration range of 1–10 μM. In Table 4, the inhibition percentage of cell proliferation for each concentration of the synthesized compounds are shown. All derivatives inhibited CFs proliferation induce by serum.
as §1, with “Cells were cultured in 35-mm well plates and serum starved for 24 h prior to stimulation.” left out
as §2, with “10 μL of 0.2 mg/mL Alamar Blue® was added into each well followed by incubation for 24 h.” left out, “To evaluate CFs proliferation assay, cells were seeded as mentioned before, and after serum starvation, they were stimulated by 10% fetal bovine serum (FBS), in presence/absence of CTz derivatives for 24 h, at concentrations according to experiment.” left out

α-SMA expression in CFs = assay: α-SMA expression levels in cardiac fibroblasts, western blot; assay type: cell-based, rat; settings: derivatives 5 μM (TSA 0.1 μM) for 48 h in presence of TGF-β1
Experimental: For this purpose, a fixed concentration of 5a, 6a, 7a and 8a derivatives in the presence/absence of TGF–β1 (a strong inducer of CFs–to–CMFs differentiation), was studied, and α–SMA expression levels were measured by using the western blot technique. TSA was used as a control and also for comparative purposes.
(§3) For the analysis of the protein expression of histone H4–acetylated (ac–H4) and total H4 histone, a number of 1 × 10^6 of CFs seeded in 60 mm plates was used, which were incubated with the inhibitory compounds at a concentration of 10 μM, in the absence/presence of TGF–β1(5ng/mL) for 4 h. Subsequently, total histones were extracted by the technique of saline precipitation (high salt extraction). Briefly, CFs were scraped from the plates with 1 mL of cold PBS transferring their contents to Eppendorf tubes to be centrifuged for 60 s at 1500 rpm at 4 °C and re–suspended in 400 μL of cold buffer A (10 mM 4-(2-hydroxyethyl)-1-piperazineethanesulfonic acid-KOH (HEPES-KOH) adjusted to pH 7.9, 1.5 mM MgCl2, 10 mM KCl, 0.5 mM dithiothreitol and 0.2 mM phenylmethylsulfonyl fluoride (PMSF). The suspension is left on ice for 10 min and then placed in the vortex for 10 s. The samples were centrifuged for 60 s, subsequently discarding the supernatant fraction. The obtained pellet was re-suspended in 60 μL of cold C buffer (20 mM HEPES-KOH adjusted to pH 7.9, 25% glycerol, 420 mM NaCl, 1.5 mM MgCl2, 0.2 mM EDTA, dithiothreitol 0.5 mM and 0.2 mM PMSF) and placed on ice for 20 min for saline precipitation. Cell debris is removed by centrifugation for 120 s at 1500 rpm at 4 °C and the supernatant fraction, which contains the DNA binding proteins, is stored at minus 20 °C. For the analysis of α–SMA and procollagen type I expression levels, 3×10^5 CFs seeded in 35 mm plates were used, which were incubated together with inhibitor compounds at a 5 μM, in the absence/presence of TGF–β1 (5 ng/mL) for 48 h. To obtain the total proteins, the CFs were washed three times with cold PBS, then scraped and lysed with 50 μL of radio inmuno-precipitation assay (RIPA) lysis buffer (10 mM Tris–HCl pH 7.2, 5 mM EDTA, 150 mM NaCl, Triton X–100 1%, sodium dodecyl sulfate (SDS) 0.1%, deoxycholate 1%, leupeptin 2 μg/mL, aprotinin 10mM, PMSF 1mM and Na3VO4 100μM). The solution was centrifuged for 15 min at 10,000 rpm and at 4 °C. The supernatant fraction containing the total proteins was stored at minus 20 °C. The concentration of proteins obtained was determined by spectrophotometry at 570 nm, using the Bradford method (Bio-Rad, Hercules, CA, USA).
(§4) CFs proteins (25 μg), were subjected to 10% sodium dodecyl sulfate-polyacrylamide gel electrophoresis and finally transferred onto a nitrocellulose membrane (Millipore, Billerica, MA, USA). The membrane was washed twice with tris–buffered saline solution containing 0.1% Tween 20 (TBST). After being blocked with TBST containing 5% nonfat milk for 40 min, the membrane was incubated with primary antibodies in TBST/1% nonfat milk at 4 °C overnight. The membrane was washed three times with TBST for a total of 15 min and then incubated with primary antibodies (ac–H4, H4 total, α-SMA, procollagen type I and GAPDH). Then the membrane was incubated with goat anti–rabbit or anti-mouse IgG antibodies conjugated with horseradish (diluted 1:1000) for 1 h at room temperature. Signals were developed with ECL reagents and exposure to photographic film.
Figure 4 CTz non–substituted inhibit α-SMA expression in cardiac fibroblasts. (A) CFs were exposed to 5a, 6a, 7a and 8a at 5 μM for 48 h. […] (B) CFs were exposed to 5a, 6a, 7a and 8a at 5 μM for 48 h in presence of TGF–β1 ([…]). α-SMA expression levels were measured by western blot. GAPDH was used as control load.

[4] = test system: procollagen type I expression in CFs; assay: Procollagen type I expression levels in cardiac fibroblasts, western blot; assay type: cell-based, rat; settings: derivatives 5 μM (TSA 0.1 μM) for 48 h in presence of TGF-β1
Experimental: In CFs collagen type I secretion is a hallmark of cardiac fibrosis development, which is regulated by HDACs. […] For this purpose, a fixed concentration of 5a, 6a, 7a and 8a derivatives in presence/absence of TGF-β1 were studied, and procollagen type I expression levels were measured by using the western blot technique. TSA was used as control and also for comparative purposes. In Figure 5 (A and B), in the upper panel representative photographs of procollagen type I expression level and GAPDH (used as charge control) are shown, whereas in the lower panel the graphic analyses are observed.
as §3, §4
Figure 5 CTz non–substituted inhibit procollagen type I expression levels in cardiac fibroblasts. […] (B) CFs were exposed to 5a, 6a, 7a and 8a at 5 μM for 48 h in presence of TGF–β1. Procollagen type I expression levels were measured by western blot. GAPDH was used as control load.

T1 sequence (Q13547 whole entry): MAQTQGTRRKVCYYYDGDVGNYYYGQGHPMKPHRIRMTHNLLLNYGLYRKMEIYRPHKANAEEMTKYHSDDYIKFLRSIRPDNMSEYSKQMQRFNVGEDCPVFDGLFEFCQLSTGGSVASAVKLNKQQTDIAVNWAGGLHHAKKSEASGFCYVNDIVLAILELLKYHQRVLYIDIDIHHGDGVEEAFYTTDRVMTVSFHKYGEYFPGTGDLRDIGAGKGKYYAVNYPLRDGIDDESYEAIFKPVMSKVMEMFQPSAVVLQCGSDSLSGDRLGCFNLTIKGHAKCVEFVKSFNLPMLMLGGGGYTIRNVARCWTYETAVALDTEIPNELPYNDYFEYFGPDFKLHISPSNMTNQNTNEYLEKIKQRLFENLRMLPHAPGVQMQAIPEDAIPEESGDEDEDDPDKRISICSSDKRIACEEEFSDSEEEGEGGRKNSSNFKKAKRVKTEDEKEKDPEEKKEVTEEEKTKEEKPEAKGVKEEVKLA

IC50 [1] [nM] | IC50 (HDAC1 human recombinant) [nM] | IC50 (HDAC6 human recombinant) [nM] | melting point [°C] | SMILES | CC50 at 48 h [2] [nM] | inhibition at 1 µM ([3]; 1 μM) [%] | inhibition at 5 µM ([3]; 5 μM) [%] | inhibition at 10 µM ([3]; 10 μM) [%] | α-SMA expression levels induced by TGF-β1 (α-SMA expression in CFs) | procollagen type I expression levels induced by TGF-β1 [4]
62.1 ± 2.5 | 47.6 ± 2.3 | 123 ± 5.1 | 150 to 153 | O=C(CCCCC1CCSS1)Nc1nc(-c2cc3cc(Br)ccc3oc2=O)cs1 (centres unmarked) [Compound 5b, 5-[1,2]-Dithiolan-3-yl-N-[4-(6-bromo-2-oxo-2H-chromen-3-yl)-thiazol-2-yl]-pentanamide] | 127000 ± 19200 | 71.5 ± 3.8 | 89.1 ± 9.5 | 96.4 ± 4.7 | – | –
5 ± 0.12 | – | – | – | CC(/C=C/C(=O)NO)=C\[C@@H](C)C(=O)c1ccc(N(C)C)cc1 [TSA, trichostatin A, reference compound] | – | – | – | – | decrease close to control levels | decreased, close to control levels
